The values below come from ChEMBL document CHEMBL3632555, “Design, synthesis and biological evaluation of novel 1,2,4-triazolo [3,4-b][1,3,4] thiadiazines bearing furan and thiophene nucleus” (Eur J Med Chem, 2015).

Test [1] has as its system PC-3. Put plainly: Cytotoxicity against human PC3 cells after 48 hrs by MTT assay. The format is functional, cell-based. The conditions noted are these: PC-3, 48 h.
Test [2] deals with HepG2. Put plainly: Cytotoxicity against human HepG2 cells after 48 hrs by MTT assay. The settings on record: HepG2, 48 h. In kind it is functional, cell-based.
For test [3], the system named is A549. The test can be described thus: Cytotoxicity against human A549 cells after 48 hrs by MTT assay. In kind it is functional, cell-based. The settings on record: A549, 48 h.
The subject of the next test is MCF7. The test can be described thus: Cytotoxicity against human MCF7 cells after 48 hrs by MTT assay. In kind it is functional, cell-based. The conditions noted are these: MCF7, 48 h.
Test [4] has as its system PC-3. The test can be described thus: Potency index, ratio of IC50 for fluorouracil to IC50 for test compound for human PC3 cells. The format is functional.
Test [5] deals with HepG2. The test can be described thus: Potency index, ratio of IC50 for fluorouracil to IC50 for test compound for human HepG2 cells. The format is functional.
Test [6] relates to A549. The test can be described thus: Potency index, ratio of IC50 for fluorouracil to IC50 for test compound for human A549 cells. The format is functional.
The subject of test [7] is PC-3. Put plainly: Cell cycle arrest in human PC3 cells assessed as accumulation at Sub-G1 phase at 2 uM after 48 hrs by flow cytometry (Rvb=0.37%). In kind it is functional.
Test [8] deals with PC-3. The test can be described thus: Cell cycle arrest in human PC3 cells assessed as accumulation at G0/G1 phase at 2 uM after 48 hrs by flow cytometry (Rvb=60.55%). The format is functional.
Test [9] relates to PC-3. The test can be described thus: Cell cycle arrest in human PC3 cells assessed as accumulation at S phase at 2 uM after 48 hrs by flow cytometry (Rvb=21.10%). In kind it is functional.
In test [10] the test system is PC-3. The test can be described thus: Cell cycle arrest in human PC3 cells assessed as accumulation at G2/M phase at 2 uM after 48 hrs by flow cytometry (Rvb=16.72%). In kind it is functional.
Test [11] deals with PC-3. Put plainly: Cell cycle arrest in human PC3 cells assessed as accumulation at Sub-G1 phase at 4 uM after 48 hrs by flow cytometry (Rvb=0.37%). The format is functional.
In test [12] the test system is PC-3. Put plainly: Cell cycle arrest in human PC3 cells assessed as accumulation at G0/G1 phase at 4 uM after 48 hrs by flow cytometry (Rvb=60.55%). In kind it is functional.
The test system of test [13] is PC-3. Put plainly: Cell cycle arrest in human PC3 cells assessed as accumulation at S phase at 4 uM after 48 hrs by flow cytometry (Rvb=21.10%). In kind it is functional.
The subject of test [14] is PC-3. The test can be described thus: Cell cycle arrest in human PC3 cells assessed as accumulation at G2/M phase at 4 uM after 48 hrs by flow cytometry (Rvb=16.72%). The format is functional.
The test system of test [15] is PC-3. Put plainly: Cell cycle arrest in human PC3 cells assessed as accumulation at Sub-G1 phase at 8 uM after 48 hrs by flow cytometry (Rvb=0.37%). The format is functional.
The subject of test [16] is PC-3. Put plainly: Cell cycle arrest in human PC3 cells assessed as accumulation at G0/G1 phase at 8 uM after 48 hrs by flow cytometry (Rvb=60.55%). In kind it is functional.
For test [17], the system named is PC-3. The test can be described thus: Cell cycle arrest in human PC3 cells assessed as accumulation at S phase at 8 uM after 48 hrs by flow cytometry (Rvb=21.10%). In kind it is functional.
Test [18] relates to PC-3. Put plainly: Cell cycle arrest in human PC3 cells assessed as accumulation at G2/M phase at 8 uM after 48 hrs by flow cytometry (Rvb=16.72%). In kind it is functional.
The subject of test [19] is PC-3. Put plainly: Cell cycle arrest in human PC3 cells assessed as accumulation at G2/M phase after 48 hrs by flow cytometry. The format is functional, cell-based.

Consider `COc1cc(C(=O)C2Sc3nnc(-c4cc(OC)c(OC)c(OC)c4)n3NC2c2cccs2)cc(OC)c1OC` (centres undefined), for which the IC50 in the test on PC-3 [1] was greater than 100 µM; with HepG2 [2], greater than 100 µM; in the test on A549 [3], greater than 100 µM; with MCF7, 71 µM.
In the case of `COc1cc(-c2nnc3n2NC(c2ccco2)C(C(=O)c2ccc(F)c(F)c2)S3)cc(OC)c1OC` (centres undefined), the IC50 in the test with PC-3 [1] came to 36 µM; in the test on HepG2 [2] it was 52.4 µM; in the test with A549 [3] it was 93.7 µM; in the test on MCF7, 73.2 µM. In addition, the “Ratio IC50” value in the test on PC-3 [4] came to 0.62.
As for `COc1cc(-c2nnc3n2NC(c2cccs2)C(C(=O)c2ccccc2)S3)cc(OC)c1OC` (centres undefined), the IC50 was 86.3 µM in the test on PC-3 [1], greater than 100 µM in the test with HepG2 [2], 69.4 µM in the test on A549 [3] and greater than 100 µM with MCF7.
Regarding `COc1cc(-c2nnc3n2NC(c2cccs2)C(C(=O)c2ccc(Cl)cc2)S3)cc(OC)c1OC` (centres undefined), the IC50 was determined as 32.5 µM in the test with PC-3 [1], 13.2 µM in the test with HepG2 [2], 20.1 µM in the test with A549 [3] and 42.8 µM in the test on MCF7.
The matching figures for `COc1cc(-c2nnc3n2NC(c2ccco2)C(C(=O)c2ccccc2)S3)cc(OC)c1OC` (centres undefined): 64.3 µM, 90.9 µM, 33.4 µM and 39.8 µM.
In the case of `COc1cc(-c2nnc3n2NC(c2cccs2)C(C(=O)c2ccc(C)cc2)S3)cc(OC)c1OC` (centres undefined), the IC50 stood at 5.09 µM in the test with PC-3 [1], 3.7 µM in the test with HepG2 [2], 12.7 µM in the test on A549 [3] and 28.4 µM with MCF7. The “Ratio IC50” value amounted to 3 in the test on PC-3 [4], 11 with HepG2 [5] and 2 in the test with A549 [6]. The Activity was 0.92% with PC-3 [7]; 33.85% with PC-3 [8]; 15.52% in the test on PC-3 [9]; 47.22% in the test on PC-3 [10]; 0.3% in the test on PC-3 [11]; 29.4% in the test with PC-3 [12]. In addition, the Activity in the test on PC-3 [13] is given as 12.53%; in the test with PC-3 [14], 57%; with PC-3 [15], 0.38%; in the test on PC-3 [16], 23.69%; with PC-3 [17], 9.79%; in the test with PC-3 [18] it was 65.1%. For the same compound, in the test on PC-3 [19], the Activity result was “Dose-dependent effect”.
For the compound `COc1cc(-c2nnc3n2NC(c2ccco2)C(C(=O)c2ccc(F)cc2)S3)cc(OC)c1OC` (centres undefined), the IC50 with PC-3 [1] was 27.7 µM; in the test on HepG2 [2], greater than 100 µM; in the test on A549 [3], 53.7 µM; in the test on MCF7 it was greater than 100 µM. In the test with PC-3 [4], the “Ratio IC50” value is recorded as 0.62.
As to `COc1cc(-c2nnc3n2NC(c2ccco2)C(C(=O)c2ccc(C)cc2)S3)cc(OC)c1OC` (centres undefined), the IC50 in the test with PC-3 [1] was 7.5 µM; with HepG2 [2] it was 17.4 µM; with A549 [3], greater than 100 µM; with MCF7 it was greater than 100 µM. Besides, the figures for the “Ratio IC50” value in the test on PC-3 [4] and in the test with HepG2 [5] were 3 and 2.7, respectively.
Turning to `COc1cc(-c2nnc3n2NC(c2cccs2)C(C(=O)c2ccc(F)cc2)S3)cc(OC)c1OC` (centres undefined), the IC50 turned out to be 27.4 µM in the test on PC-3 [1], 54.2 µM in the test with HepG2 [2], 45 µM with A549 [3] and 43.6 µM with MCF7.
In the case of `COc1cc(-c2nnc3n2NC(c2ccco2)C(C(=O)c2ccccc2F)S3)cc(OC)c1OC` (centres undefined), the IC50 with PC-3 [1] was greater than 100 µM; with HepG2 [2], greater than 100 µM; in the test on A549 [3], 78.7 µM; in the test with MCF7, 94.8 µM.
Take `COc1cc(-c2nnc3n2NC(c2ccco2)C(C(=O)c2ccco2)S3)cc(OC)c1OC` (centres undefined): the IC50 in the test with PC-3 [1] was 58.3 µM; with HepG2 [2], greater than 100 µM; with A549 [3], 68.7 µM; in the test with MCF7, greater than 100 µM.
For the compound `COc1cc(-c2nnc3n2NC(c2ccco2)C(C(=O)c2ccc(Cl)cc2)S3)cc(OC)c1OC` (centres undefined), the IC50 in the test with PC-3 [1] was 67.8 µM; in the test with HepG2 [2], 78.6 µM; in the test on A549 [3], 51.4 µM; in the test on MCF7 it was greater than 100 µM.
Taken in the same sequence, the figures for `COc1ccc(C(=O)C2Sc3nnc(-c4cc(OC)c(OC)c(OC)c4)n3NC2c2ccco2)cc1` (centres undefined) were greater than 100 µM, greater than 100 µM, greater than 100 µM and greater than 100 µM.
The matching figures for `COc1cc(-c2nnc3n2NC(c2ccco2)C(C(=O)c2ccc(O)cc2)S3)cc(OC)c1OC` (centres undefined): 38.3 µM, greater than 100 µM, 93.4 µM and 88.9 µM.
The matching figures for `COc1cccc(C(=O)C2Sc3nnc(-c4cc(OC)c(OC)c(OC)c4)n3NC2c2ccco2)c1` (centres undefined): 84.6 µM, greater than 100 µM, greater than 100 µM and greater than 100 µM.
Regarding `O=c1[nH]cc(F)c(=O)[nH]1` [FLUOROURACIL], the IC50 with PC-3 [1] worked out at 22.6 µM; in the test on A549 [3] it was 22.3 µM; in the test with MCF7, 19.4 µM.
As to `COc1cc(-c2nnc3n2NC(c2ccco2)C(C(=O)c2ccc(Br)cc2)S3)cc(OC)c1OC` (centres undefined), the IC50 with PC-3 [1] is 36.4 µM; in the test on HepG2 [2], greater than 100 µM; in the test with A549 [3], 42.1 µM; with MCF7, greater than 100 µM. Moreover, in the test with PC-3 [4], the “Ratio IC50” value is reported as 0.62.
For `COc1cc(-c2nnc3n2NC(c2ccco2)C(C(=O)c2ccc(C(F)(F)F)cc2)S3)cc(OC)c1OC` (centres undefined), the IC50 in the test on PC-3 [1] is 77.5 µM; in the test on HepG2 [2], greater than 100 µM; in the test on A549 [3], 37.1 µM; with MCF7, 33.6 µM.
The matching figures for `COc1cc(-c2nnc3n2NC(c2ccco2)C(C(=O)c2cccc4ccccc24)S3)cc(OC)c1OC` (centres undefined): greater than 100 µM, 33.9 µM, greater than 100 µM and greater than 100 µM.
Taken in the same sequence, the figures for `COc1cc(-c2nnc3n2NC(c2ccco2)C(C(=O)c2cccs2)S3)cc(OC)c1OC` (centres undefined) were 46.2 µM, 64.1 µM, 78.7 µM and greater than 100 µM.
Taken in the same sequence, the figures for `COc1cc(-c2nnc3n2NC(c2ccco2)C(C(=O)C2CC2)S3)cc(OC)c1OC` (centres undefined) were 95.2 µM, greater than 100 µM, greater than 100 µM and greater than 100 µM.
With `COc1cc(-c2nnc3n2NC(c2ccco2)C(C(=O)c2ccc([N+](=O)[O-])cc2)S3)cc(OC)c1OC` (centres undefined), the IC50 is 27.9 µM in the test with PC-3 [1], 87.8 µM with HepG2 [2], greater than 100 µM in the test on A549 [3] and greater than 100 µM with MCF7. In the test on PC-3 [4], the “Ratio IC50” value worked out at 0.62.
`COc1ccc(C(=O)C2Sc3nnc(-c4cc(OC)c(OC)c(OC)c4)n3NC2c2cccs2)cc1` (centres undefined): the IC50 was 95.9 µM with PC-3 [1], 68 µM in the test on HepG2 [2], greater than 100 µM in the test on A549 [3] and 49.5 µM in the test on MCF7.
The matching figures for `COc1cc(-c2nnc3n2NC(c2ccco2)C(C(=O)c2ccccc2C)S3)cc(OC)c1OC` (centres undefined): 88.4 µM, 63 µM, 80 µM and 69.9 µM.
The matching figures for `COc1cc(-c2nnc3n2NC(c2ccco2)C(C(=O)c2cccc(Br)c2)S3)cc(OC)c1OC` (centres undefined): 63.9 µM, greater than 100 µM, 36.9 µM and 91.8 µM.
The matching figures for `COc1cc(C(=O)C2Sc3nnc(-c4cc(OC)c(OC)c(OC)c4)n3NC2c2ccco2)cc(OC)c1OC` (centres undefined): 52.2 µM, greater than 100 µM, 48.3 µM and greater than 100 µM.
On to `COc1cc(-c2nnc3n2NC(c2ccco2)C(C(=O)c2ccc(-c4ccccc4)cc2)S3)cc(OC)c1OC` (centres undefined), for which the IC50 was 45.9 µM with PC-3 [1], greater than 100 µM in the test on HepG2 [2], greater than 100 µM with A549 [3] and greater than 100 µM in the test with MCF7.
